These results are taken from ChEMBL document CHEMBL5370535, “Thiazolyl hydrazineylidenyl indolones as unique potential multitargeting broad-spectrum antimicrobial agents” (Eur J Med Chem, 2023).

Structures are written as SMILES. In brackets after ≈: the same amount, converted by molar mass.

What all share (format): functional
Experiment [1] has as its system Staphylococcus aureus. The experiment can be described thus: Antibacterial activity against methicillin-resistant Staphylococcus aureus assessed as bacterial growth inhibition incubated for 24 hrs by CLSI based two serial dilution assay.
The test system of another experiment is Enterococcus faecalis. The experiment is described as follows: Antibacterial activity against Enterococcus faecalis assessed as bacterial growth inhibition incubated for 24 hrs by CLSI based two serial dilution assay.
Experiment [2] has as its system Staphylococcus aureus. The experiment is described as follows: Antibacterial activity against Staphylococcus aureus assessed as bacterial growth inhibition incubated for 24 hrs by CLSI based two serial dilution assay.
For experiment [3], the system named is Staphylococcus aureus. The experiment can be described thus: Antibacterial activity against Staphylococcus aureus 25923 assessed as bacterial growth inhibition incubated for 24 hrs by CLSI based two serial dilution assay.
In experiment [4] the test system is Staphylococcus aureus. The experiment is described as follows: Antibacterial activity against Staphylococcus aureus 29213 assessed as bacterial growth inhibition incubated for 24 hrs by CLSI based two serial dilution assay.
The subject of a further experiment is Klebsiella pneumoniae. The experiment is described as follows: Antibacterial activity against Klebsiella pneumoniae assessed as bacterial growth inhibition incubated for 24 hrs by CLSI based two serial dilution assay.
For experiment [5], the system named is Escherichia coli. The experiment is described as follows: Antibacterial activity against Escherichia coli assessed as bacterial growth inhibition incubated for 24 hrs by CLSI based two serial dilution assay.
Experiment [6] deals with Escherichia coli. The experiment is described as follows: Antibacterial activity against Escherichia coli 25922 assessed as bacterial growth inhibition incubated for 24 hrs by CLSI based two serial dilution assay.
The subject of experiment [7] is Pseudomonas aeruginosa. The experiment can be described thus: Antibacterial activity against Pseudomonas aeruginosa assessed as bacterial growth inhibition incubated for 24 hrs by CLSI based two serial dilution assay.
Experiment [8] deals with Pseudomonas aeruginosa. The experiment is described as follows: Antibacterial activity against Pseudomonas aeruginosa ATCC 27853 assessed as bacterial growth inhibition incubated for 24 hrs by CLSI based two serial dilution assay.
For a further experiment, the system named is Acinetobacter baumannii. The experiment can be described thus: Antibacterial activity against Acinetobacter baumannii assessed as bacterial growth inhibition incubated for 24 hrs by CLSI based two serial dilution assay.
For experiment [9], the system named is Staphylococcus aureus. The experiment can be described thus: Induction of resistance development in methicillin-resistant Staphylococcus aureus assessed as fold increase in MIC measured after consecutive passages for 24 hrs by serial passaging assay.

With `CCn1cc(C(=O)O)c(=O)c2cc(F)c(N3CCNCC3)cc21` [NORFLOXACIN], the MIC with Staphylococcus aureus [1] came to 4 µM (≈ 1.28 µg/mL); in the experiment with Enterococcus faecalis it was 4 µM (≈ 1.28 µg/mL); with Staphylococcus aureus [2] it was 1 µM (≈ 0.319 µg/mL); with Staphylococcus aureus [3], 1 µM (≈ 0.319 µg/mL); in the experiment with Staphylococcus aureus [4], 2 µM (≈ 0.639 µg/mL); with Klebsiella pneumoniae it was 4 µM (≈ 1.28 µg/mL). Moreover, the MIC in the experiment on Escherichia coli [5] was 16 µM (≈ 5.11 µg/mL); with Escherichia coli [6] it was 8 µM (≈ 2.55 µg/mL); in the experiment on Pseudomonas aeruginosa [7] it was 2 µM (≈ 0.639 µg/mL); with Pseudomonas aeruginosa [8], 0.5 µM (≈ 0.16 µg/mL); with Acinetobacter baumannii, 8 µM (≈ 2.55 µg/mL). Further, in the experiment with Staphylococcus aureus [9], the “fold change (FC)” value is 4.

A word on the MIC: it is the lowest concentration that inhibits growth of the organism.
